Patent US12097200B2, “Combination of BI853520 with chemotherapeutic drugs” (INXMED (NANJING) CO., LTD., priority 2020, dated 2024)
“And” between values parts separate entries of the source, which are not always exact repeats. Equal entries are not always repeated. “Also recorded” adds a separate entry of the source.

Columns and labels:
NCI-H520 cells = conditions: NCI-H520 xenograft, day 22, combination of both
Description: Mice were approximately 6 weeks old. There were 5 mice in each group.
The cell concentration of the culture was maintained between 8×10^6 to 12×10^7 cells/tissue culture flask.
Cisplatin was dissolved in 0.9% saline.
Statistical evaluation was performed using the Student's t-test function in Microsoft Excel, utilizing a two-tailed distribution and a two-sample equal variance type.

HS 746T cells = assay: Antitumor activity in mouse xenograft model of human gastric cancer (HS 746T); assay type: in vivo; conditions: HS 746T xenograft, combination of both
Source text: (§1) For tumor volume, absolute values were used.
(§2) Appropriate statistical methods were used for evaluation.
HS 746T: Approximately 6 week old mice.

[1] = system: GXA 3039 gastric cancer PDX model
Description: Mice were housed in individual ventilated cages ([sequence] Sealsafe™-IVC-System, [sequence], Hohenpeissenberg, Germany), and type II or III cages were selected according to the number of experimental animals. The cages were under the conditions: 14L:10D light-dark cycle, air exchange (AC) rate of 60-65 AC/hr in the cage, 25±1° C. and 40-70% humidity. […] Water and diet were changed twice a week, and all materials were autoclaved before use.
Tumor fragments were implanted subcutaneously into the flank of female pre-study mice. […] Animals that were not randomized were euthanized. The date of randomization was designated as day 0 of the test, and dosing began on day 1. […] If less than 70% of the original number of mice survived (i.e. less than 6 out of 8), the entire group was terminated. […] Tolerability was assessed using the group with the largest median body weight loss (BWL) among groups.
Inhibition of tumor growth was determined by calculating TGI.
Additional endpoints used to assess efficacy included: time to tumor volume doubling/quadrupling and tumor growth delay/time to tumor progression/tumor repopulation.
Time to tumor volume doubling/quadrupling: The time to tumor volume doubling/quadrupling (Td/Tq) for the test and control groups was defined as the time interval (in days) required for each group to reach 200%/400% of the median RTV. The relative volume of a single tumor on day X (RTVx [%]) was obtained by dividing the absolute volume of the tumor on day X (Tx) by the absolute volume of the tumor on day 0 (T0) and then multiplying it by 100, as follows:
Tumor growth delay/time to tumor progression/tumor repopulation: To assess the difference in time to tumor progression/tumor repopulation after tumor regression during the no-dose observation period (tumor growth delay, TGD), Kaplan-Meier survival analysis was used. A relative tumor volume of 400% was defined as the endpoint.
The control group for oral administration was 0.5% Natrosol. The control group for intravenous administration was 0.9% saline. Each dose was 10 ml/kg.
Data were used for statistical analysis at the end of the study. The one-tailed nonparametric Mann-Whitney-Wilcoxon U test was used with the significance level a set at 0.05. The p-values obtained from the U-test were adjusted using the Bonferroni-Holm correction.
To assess the statistical significance of differences in time to tumor progression/tumor growth delay (TGD) using 400% of RTV as the trial endpoint, the Kaplan-Meier survival mode statistic was used in conjunction with the log-rank Mantel-Cox test for pairwise comparisons.
Additionally, to assess tolerance to treatment, a two-tailed nonparametric Mann-Whitney-Wilcoxon U test was performed using body weights determined at the end of the dosing period (i.e., on the day TGI values were calculated).
By convention, p-values≤0.05 represented significant tumor inhibition or weight loss.

KYSE-70 cells = assay: Antitumor activity in mouse xenograft model of human esophageal cancer (KYSE-70); assay type: in vivo; conditions: KYSE-70 xenograft, combination of both
KYSE-270 cells = assay: Antitumor activity in mouse xenograft model of human esophageal cancer (KYSE-270); assay type: in vivo; conditions: KYSE-270 xenograft
Source text: as §1, §2
Mice were approximately 8-10 weeks old.
KYSE-270 was a cell line for esophageal cancer (Public Health England, Cat. No. 94072021).

[2] = BI 853520 50 mg/kg qd, cisplatin 5 mg/kg IP q7d
[3] = BI 853520 50 mg/kg qd, docetaxel 10 mg/kg q7d
[4] = BI 853520 50 mg/kg qd, paclitaxel 10 mg/kg q7d, combination of both

N.N.[Cl][Pt][Cl] [Cisplatin, reference compound]
Median tumor volume (NCI-H520 cells; BI 853520 50 mg/kg qd by gavage, cisplatin 5 mg/kg IP once a week): 228 mm^3 | Median TGI (NCI-H520 cells; [2]): 74% | Tumor regression (animals with regression/animals in group) (NCI-H520 cells; [2]): 0/7

CC(=O)O[C@@]12CO[C@@H]1C[C@H](O)[C@@]1(C)C(=O)[C@H](O)C3=C(C)[C@@H](OC(=O)[C@H](O)[C@@H](NC(=O)OC(C)(C)C)c4ccccc4)C[C@@](O)([C@@H](OC(=O)c4ccccc4)[C@H]21)C3(C)C [Docetaxel, reference compound]
Median tumor volume (HS 746T cells; day 24 (withdrawal on day 28), BI 853520 50 mg/kg qd by gavage, docetaxel 10 mg/kg q7d i.v.): 0 mm^3 | Antitumor effect (in words) (HS 746T cells; [3]): had inhibitory effect | Change in median body weight (HS 746T cells; [3]): 6.7% | TGI (HS 746T cells; [3]): 108% | Td (time to tumor volume doubling) ([1]; GXA 3039 PDX, time to 200% of median RTV, doses as Table 8): 8.5 days | Tq (time to tumor volume quadrupling) ([1]; GXA 3039 PDX, time to 400% of median RTV, nr = not reached until end of test, doses as Table 8): 108.0 days | TGI [%] (d) ([1]; GXA 3039 gastric cancer PDX, day 36, BI 853520 50 mg/kg/d PO days 1-35, docetaxel 10 mg/kg IV days 1, 8, 15, 22, 29, combination of both): 113% and 113(36) % | Survival rate ([1]; female, BomTac:NMRI-Foxn1nu, mouse, in vivo): 2/8 | Median BWL maximum ([1]; mouse, in vivo): 2.1% | Median BWL maximum, day ([1]; mouse, in vivo): 2 days | Median tumor volume (KYSE-70 cells; day 42, BI 853520 50 mg/kg qd by gavage, docetaxel 10 mg/kg q7d i.v.): 73 mm^3 | Antitumor effect (in words) (KYSE-70 cells; [3]): had inhibitory effect | Change in median body weight (KYSE-70 cells; [3]): 5.6% | TGI (KYSE-70 cells; [3]): 100%

CC(=O)O[C@H]1C(=O)[C@@]2(C)[C@H]([C@H](OC(=O)c3ccccc3)[C@]3(O)C[C@H](OC(=O)[C@H](O)[C@@H](NC(=O)c4ccccc4)c4ccccc4)C(C)=C1C3(C)C)[C@]1(OC(C)=O)CO[C@@H]1C[C@@H]2O [Paclitaxel]
Median tumor volume (KYSE-270 cells; day 13, BI 853520 50 mg/kg qd by gavage, paclitaxel 10 mg/kg q7d i.v., combination of both): 1033 mm^3 | TGI (KYSE-270 cells; day 13, BI 853520 50 mg/kg qd, paclitaxel 10 mg/kg q7d, combination of both): 2% | Antitumor effect (in words) (KYSE-270 cells; [4]): no effect on tumor growth; also recorded: had no effect | Change in median body weight (KYSE-270 cells; [4]): −9.7% | Tumor regression (animals with regression/animals in group) (KYSE-270 cells; [4]): no tumor regression and 0/7 | Animal body weight decreased by (KYSE-270 cells; paclitaxel 10 mg/kg q7d, value is a decrease): 9.7%
